From US8921376B2, “Pyrrolopyridines useful as inhibitors of protein kinase” (Vertex Pharmaceuticals Incorporated, priority 2005, dated 2014)

Assays:
Type in all cases: biochemical
ROCK I = ROCK I (Homo sapiens, UniProt Q13464); experiment: ROCK-I inhibition assay (radioactive enzyme assay, MBP substrate)
Procedure: Compounds were screened for their ability to inhibit ROCK using a standard radioactive enzyme assay. Assays were carried out in a solution containing 100 mM HEPES (pH 7.5), 10 mM MgCl2, 25 mM NaCl, 2 mM DTT, and 1.5% DMSO. Final substrate concentrations in the assay were 13 μM [γ-^33P] ATP (25 mCi ^33P ATP/mmol ATP, Perkin Elmer, Cambridge, Mass./Sigma Chemicals, St Louis, Mo.) and 27 μM Myelin Basic Protein (MBP). Final enzyme concentration in the assay was 5 nM ROCK. Assays were carried out at room temperature. 1.5 μl of DMSO stock containing serial dilutions of the compound of the present invention (concentrations ranging from 10 μM to 2.6 nM) was placed in a 96 well plate. 50 μl of Solution 1 (100 mM HEPES (pH 7.5), 10 mM MgCl2, […]) was added to the plate. The reaction was initiated by addition of 50 μl of Solution 2 (100 mM HEPES (pH 7.5), 10 mM MgCl2, 4 mM DTT, […] and 10 nM ROCK). After 2 hours the reaction was quenched with 50 μL of 30% trichloroacetic acid (TCA, Fisher) containing 9 mM ATP. Transfer of 140 μL of the quenched reaction to a glass fiber filter plate (Corning, Cat. No. 3511) was followed by washing 3 times with 5% TCA. 50 μl of Optima Gold scintillation fluid (Perkin Elmer) was added and the plates were counted on a Top Count (Perkin Elmer). After removing mean background values for all of the data points the data was fit using Prism software to obtain a Ki(app).

JAK2 = JAK2 (Homo sapiens, UniProt O60674); experiment: JAK2 inhibition assay (as Example 3 with JAK-2 enzyme)
Procedure: (§1) Compounds were screened for their ability to inhibit JAK using the assay shown below. Reactions were carried out in a kinase buffer containing 100 mM HEPES (pH 7.4), 1 mM DTT, 10 mM MgCl2, 25 mM NaCl, and 0.01% BSA.
(§2) Substrate concentrations in the assay were 5 μM ATP (200 μCi/μmole ATP) and 1 μM poly(Glu)4Tyr. Reactions were carried out at 25° C. and 1 nM JAK3.
(§3) To each well of a 96 well polycarbonate plate was added 1.5 μl of a candidate JAK3 inhibitor along with 50/1 of kinase buffer containing 2 μM poly(Glu)4Tyr and 10 μM ATP. This was then mixed and 50 μl of kinase buffer containing 2 nM JAK3 enzyme was added to start the reaction. After 20 minutes at room temperature (25 C), the reaction was stopped with 50 μl of 20% trichloroacetic acid (TCA) that also contained 0.4 mM ATP. The entire contents of each well were then transferred to a 96 well glass fiber filter plate using a TomTek Cell Harvester. After washing, 60 μl of scintillation fluid was added and ^33P incorporation detected on a Perkin Elmer TopCount.
The assays were as described above in Example 3 except that JAK-2 enzyme was used, the final poly(Glu)4Tyr concentration was 15 μM, and final ATP concentration was 12 μM.

JAK3 = biological target: T1, JAK3 (Homo sapiens, UniProt P52333); experiment: JAK3 inhibition assay (33P incorporation into poly(Glu)4Tyr)
T1 sequence (P52333 1-1124): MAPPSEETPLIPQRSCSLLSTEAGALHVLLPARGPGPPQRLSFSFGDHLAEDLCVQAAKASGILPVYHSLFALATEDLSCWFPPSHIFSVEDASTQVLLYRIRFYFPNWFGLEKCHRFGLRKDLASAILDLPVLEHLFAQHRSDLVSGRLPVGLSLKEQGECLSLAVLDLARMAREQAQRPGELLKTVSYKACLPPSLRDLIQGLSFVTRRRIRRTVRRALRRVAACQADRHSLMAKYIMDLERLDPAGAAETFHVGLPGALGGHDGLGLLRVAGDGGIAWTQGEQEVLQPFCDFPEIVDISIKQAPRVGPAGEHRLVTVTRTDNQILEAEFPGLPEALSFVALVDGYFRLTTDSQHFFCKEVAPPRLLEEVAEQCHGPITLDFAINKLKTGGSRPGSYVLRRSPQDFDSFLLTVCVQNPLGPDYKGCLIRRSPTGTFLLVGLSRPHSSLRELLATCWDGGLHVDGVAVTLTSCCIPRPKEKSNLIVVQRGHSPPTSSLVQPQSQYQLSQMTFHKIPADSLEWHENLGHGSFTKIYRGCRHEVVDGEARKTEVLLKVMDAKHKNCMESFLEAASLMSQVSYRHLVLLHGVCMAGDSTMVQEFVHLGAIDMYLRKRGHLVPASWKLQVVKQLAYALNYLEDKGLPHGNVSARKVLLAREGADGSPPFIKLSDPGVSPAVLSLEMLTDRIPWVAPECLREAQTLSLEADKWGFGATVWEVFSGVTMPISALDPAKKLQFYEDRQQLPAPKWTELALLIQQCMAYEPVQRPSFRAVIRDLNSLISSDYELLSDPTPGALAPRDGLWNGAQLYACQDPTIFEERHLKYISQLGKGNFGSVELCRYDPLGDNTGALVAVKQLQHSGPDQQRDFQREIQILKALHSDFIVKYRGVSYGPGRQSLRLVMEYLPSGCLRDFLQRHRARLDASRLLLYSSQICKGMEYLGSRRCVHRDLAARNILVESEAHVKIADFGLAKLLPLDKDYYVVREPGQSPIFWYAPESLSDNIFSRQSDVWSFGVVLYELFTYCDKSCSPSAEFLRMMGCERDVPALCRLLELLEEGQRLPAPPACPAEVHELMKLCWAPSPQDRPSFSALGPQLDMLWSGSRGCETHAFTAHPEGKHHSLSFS
Procedure: as §1, §2, §3

[1] = Table 6, enzyme inhibition data (Ki)
[2] = enzyme inhibition, Ki(app), Table 5

Sequence of JAK2 (O60674 whole entry): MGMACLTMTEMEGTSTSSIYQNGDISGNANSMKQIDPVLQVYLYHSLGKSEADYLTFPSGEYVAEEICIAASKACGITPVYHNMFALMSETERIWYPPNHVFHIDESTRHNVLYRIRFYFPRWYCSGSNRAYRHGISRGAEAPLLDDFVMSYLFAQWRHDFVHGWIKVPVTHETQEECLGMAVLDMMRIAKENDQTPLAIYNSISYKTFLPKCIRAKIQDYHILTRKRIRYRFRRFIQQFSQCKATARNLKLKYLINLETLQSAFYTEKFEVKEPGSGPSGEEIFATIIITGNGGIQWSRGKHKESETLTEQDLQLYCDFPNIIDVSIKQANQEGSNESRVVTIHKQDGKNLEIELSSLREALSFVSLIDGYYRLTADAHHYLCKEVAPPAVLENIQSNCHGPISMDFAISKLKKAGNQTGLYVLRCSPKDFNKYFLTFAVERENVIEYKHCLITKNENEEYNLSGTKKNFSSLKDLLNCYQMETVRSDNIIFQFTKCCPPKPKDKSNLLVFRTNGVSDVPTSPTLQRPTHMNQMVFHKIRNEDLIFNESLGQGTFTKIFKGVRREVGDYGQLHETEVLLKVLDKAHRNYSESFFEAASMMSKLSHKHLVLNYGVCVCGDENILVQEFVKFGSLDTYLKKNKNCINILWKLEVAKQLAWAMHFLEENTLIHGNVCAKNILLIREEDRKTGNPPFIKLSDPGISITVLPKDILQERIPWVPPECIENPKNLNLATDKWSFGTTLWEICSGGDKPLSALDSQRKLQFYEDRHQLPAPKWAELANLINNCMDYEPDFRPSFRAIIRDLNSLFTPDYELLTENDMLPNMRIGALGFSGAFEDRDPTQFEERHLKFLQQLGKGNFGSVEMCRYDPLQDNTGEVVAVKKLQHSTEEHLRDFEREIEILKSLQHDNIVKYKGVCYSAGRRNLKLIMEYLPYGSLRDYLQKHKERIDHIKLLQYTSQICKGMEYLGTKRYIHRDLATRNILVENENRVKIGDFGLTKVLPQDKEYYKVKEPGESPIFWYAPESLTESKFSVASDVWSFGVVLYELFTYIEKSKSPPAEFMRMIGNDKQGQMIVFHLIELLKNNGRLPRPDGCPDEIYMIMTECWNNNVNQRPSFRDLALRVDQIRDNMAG
Sequence of ROCK I (Q13464 whole entry): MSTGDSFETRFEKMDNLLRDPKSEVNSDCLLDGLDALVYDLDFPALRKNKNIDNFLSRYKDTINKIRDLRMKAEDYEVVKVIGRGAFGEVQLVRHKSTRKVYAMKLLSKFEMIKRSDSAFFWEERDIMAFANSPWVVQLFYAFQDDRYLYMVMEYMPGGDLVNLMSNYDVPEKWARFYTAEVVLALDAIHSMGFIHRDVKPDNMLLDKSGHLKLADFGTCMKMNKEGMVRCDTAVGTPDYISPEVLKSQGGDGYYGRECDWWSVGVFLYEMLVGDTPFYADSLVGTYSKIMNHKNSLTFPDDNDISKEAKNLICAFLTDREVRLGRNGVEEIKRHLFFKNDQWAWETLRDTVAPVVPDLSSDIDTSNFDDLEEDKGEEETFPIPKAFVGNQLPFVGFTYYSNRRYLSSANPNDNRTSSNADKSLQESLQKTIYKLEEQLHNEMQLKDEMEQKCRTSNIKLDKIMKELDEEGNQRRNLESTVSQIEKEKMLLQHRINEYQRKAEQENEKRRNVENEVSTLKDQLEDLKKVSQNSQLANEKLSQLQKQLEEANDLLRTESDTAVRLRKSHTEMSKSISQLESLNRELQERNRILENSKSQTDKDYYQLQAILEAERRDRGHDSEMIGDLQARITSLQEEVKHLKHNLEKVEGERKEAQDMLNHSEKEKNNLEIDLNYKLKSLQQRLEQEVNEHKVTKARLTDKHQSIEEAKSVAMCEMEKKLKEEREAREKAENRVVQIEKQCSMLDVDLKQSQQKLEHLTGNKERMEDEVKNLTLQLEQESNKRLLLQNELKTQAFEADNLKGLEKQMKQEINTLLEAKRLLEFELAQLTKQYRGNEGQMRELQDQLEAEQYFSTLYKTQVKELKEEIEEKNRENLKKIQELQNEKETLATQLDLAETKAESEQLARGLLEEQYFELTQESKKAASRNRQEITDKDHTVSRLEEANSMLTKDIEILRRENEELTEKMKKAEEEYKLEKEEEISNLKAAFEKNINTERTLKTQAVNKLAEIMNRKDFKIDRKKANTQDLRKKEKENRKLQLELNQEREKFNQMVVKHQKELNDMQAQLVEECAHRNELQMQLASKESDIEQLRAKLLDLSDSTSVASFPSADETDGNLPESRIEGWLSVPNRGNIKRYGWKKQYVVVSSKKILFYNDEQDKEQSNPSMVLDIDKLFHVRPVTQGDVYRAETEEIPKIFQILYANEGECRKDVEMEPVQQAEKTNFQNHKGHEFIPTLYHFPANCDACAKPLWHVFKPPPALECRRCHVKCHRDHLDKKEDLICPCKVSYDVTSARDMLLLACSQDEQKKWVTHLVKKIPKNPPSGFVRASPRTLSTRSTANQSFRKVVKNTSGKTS

Structure (SMILES)	Ki (ROCK I; [1])	Ki (JAK2; [1])	Ki (JAK3; [1])	Ki (ROCK I; [2])	Ki (JAK2; enzyme inhibition, Table 5)	Ki (JAK3; enzyme inhibition, Table 5)
CN(CC(F)(F)F)C(=O)c1cc(-c2ccnc3[nH]ccc23)c[nH]1 [compound 376]	< 0.5 µM	< 0.5 µM	< 0.5 µM			
c1ccc(COc2cccc(-c3ccnc4[nH]ccc34)c2)cc1 [compound 42, 4-(3-Benzyloxy-phenyl)-1H-pyrrolo[2,3-b]pyridine]				< 0.5 µM	0.5 to 5 µM	< 0.5 µM
CN(CC(F)(F)F)C(=O)c1cc(-c2c(Cl)cnc3[nH]ccc23)c[nH]1 [compound 360]	0.5 to 5 µM	< 0.5 µM	< 0.5 µM			
CCCCN(CC#N)C(=O)c1cc(-c2ccnc3[nH]ccc23)c[nH]1 [compound 300]	< 0.5 µM	< 0.5 µM	< 0.5 µM			
O=C(NCC1CC1)c1cc(-c2ccnc3[nH]ccc23)c[nH]1 [compound 286]	< 0.5 µM	< 0.5 µM	< 0.5 µM			
O=C(Nc1ccccc1)c1ccc(-c2ccnc3[nH]ccc23)cc1 [compound 271]	< 0.5 µM	< 0.5 µM	< 0.5 µM			
CCCNC(=O)c1cc(-c2ccnc3[nH]ccc23)c[nH]1 [compound 283]	< 0.5 µM	< 0.5 µM	< 0.5 µM			
CC(C)(C)OC(=O)n1c(-c2c(Cl)cnc3[nH]ccc23)cc2ccccc21 [compound 147]	> 4 µM	> 5 µM	> 5 µM			
O=C(c1cc(-c2ccnc3[nH]ccc23)c[nH]1)N1CCCC1C(F)(F)F (stereo not drawn) [compound 374]	< 0.5 µM	< 0.5 µM	< 0.5 µM			
O=C(c1cc(-c2c(Cl)cnc3[nH]ccc23)c[nH]1)N1CCC(CO)CC1 [compound 347]	0.5 to 5 µM	< 0.5 µM	< 0.5 µM			
CCCN(CCC)C(=O)c1cc(-c2c(Cl)cnc3[nH]ccc23)c[nH]1 [compound 340]	> 4 µM	< 0.5 µM	< 0.5 µM			
C[C@@H](Nc1nc(-c2ccnc3[nH]ccc23)ncc1F)C(=O)NCC(F)(F)F [compound 201]	> 4 µM	0.5 to 5 µM	< 0.5 µM			
O=C(c1cc(-c2c(F)cnc3[nH]ccc23)c[nH]1)N(CCC(F)(F)F)Cc1ccccc1 [compound 389]	0.5 to 5 µM	< 0.5 µM	< 0.5 µM			
CC1CCCN(c2cccc(-c3ccnc4[nH]ccc34)n2)C1 (stereo not drawn) [compound 25, 4-(6-(3-Methylpiperidin-1-yl)pyridin-2-yl)-1H-pyrrolo[2,3-b]pyridine]				< 0.5 µM	< 0.5 µM	0.5 to 5 µM
Cc1cccc(-c2ccnc3[nH]ccc23)c1C [compound 212]	0.5 to 5 µM	0.5 to 5 µM	0.5 to 5 µM			
C#CCN(C)C(=O)c1cc(-c2c(Cl)cnc3[nH]ccc23)c[nH]1 [compound 338]	0.5 to 5 µM	< 0.5 µM	< 0.5 µM			
C#CCOC(=O)N1CC[C@@H](Nc2c(Cl)cnc3[nH]ccc23)C1 [compound 169]	0.5 to 5 µM	< 0.5 µM	< 0.5 µM			

Structure (SMILES)	Ki (ROCK I; [1])	Ki (JAK2; [1])	Ki (JAK3; [1])	Ki (ROCK I; [2])	Ki (JAK2; enzyme inhibition, Table 5)	Ki (JAK3; enzyme inhibition, Table 5)
C[C@H](Nc1nc(-c2ccnc3[nH]ccc23)ncc1F)C(=O)NCC(F)(F)F [compound 121, (S)-2-(5-fluoro-2-(1H-pyrrolo[2,3b]pyridin-4-yl)pyrimidin-4-ylamino)-N-(2,2,2-trifluoroethyl)propanamide]				0.5 to 5 µM	0.5 to 5 µM	< 0.5 µM
Clc1cnc2[nH]ccc2c1N[C@@H]1CCC[C@H]1OCc1ccccc1 [compound 152]	< 0.5 µM	< 0.5 µM	< 0.5 µM			
Clc1cnc2[nH]ccc2c1NC1CCCN(Cc2ccccc2)C1 (stereo not drawn) [compound 157]	< 0.5 µM	< 0.5 µM	< 0.5 µM			
CSc1ccccc1-c1ccnc2[nH]ccc12 [compound 239]	0.5 to 5 µM	0.5 to 5 µM	0.5 to 5 µM			
FC(F)(F)c1cccc(-c2ccnc3[nH]ccc23)c1 [compound 113, 4-(3-Trifluoromethyl-phenyl)-1H-pyrrolo[2,3-b]pyridine]				< 0.5 µM	< 0.5 µM	0.5 to 5 µM
FC(F)(F)c1ccccc1-c1ccnc2[nH]ccc12 [compound 208]	0.5 to 5 µM	> 5 µM	> 5 µM			
CCOC(=O)C1CCN(C(=O)c2cc(-c3c(Cl)cnc4[nH]ccc34)c[nH]2)CC1 [compound 348]	> 4 µM	0.5 to 5 µM	0.5 to 5 µM			
O=C(c1cc(-c2c(Cl)cnc3[nH]ccc23)c[nH]1)N1CCC(O)C1 (stereo not drawn) [compound 350]	> 4 µM	< 0.5 µM	< 0.5 µM			
c1cc(NCc2ccc3c(c2)OCO3)nc(-c2ccnc3[nH]ccc23)c1 [compound 60, N-((Benzo[d][1,3]dioxol-6-yl)methyl)-6-(1H-pyrrolo[2,3-b]pyridin-4-yl)pyridin-2-amine]				0.5 to 5 µM	0.5 to 5 µM	0.5 to 5 µM
O=C(NCC(F)(F)F)c1cccc(-c2ccnc3[nH]ccc23)c1 [compound 251]	< 0.5 µM	0.5 to 5 µM	< 0.5 µM			
Clc1cnc2[nH]ccc2c1NC1CCCCCC1 [compound 149]	< 0.5 µM	< 0.5 µM	< 0.5 µM			
O=C(CC(F)(F)F)N1CC[C@H](Nc2c(Cl)cnc3[nH]ccc23)C1 [compound 187]	0.5 to 5 µM	< 0.5 µM	< 0.5 µM			
Clc1ccc(-c2ccnc3[nH]ccc23)cc1Cl [compound 41, 4-(3,4-Dichloro-phenyl)-1H-pyrrolo[2,3-b]pyridine]				< 0.5 µM	< 0.5 µM	0.5 to 5 µM
COCc1cccc(-c2ccnc3[nH]ccc23)c1 [compound 62, 4-(3-Methoxymethyl-phenyl)-1H-pyrrolo[2,3-b]pyridine]				< 0.5 µM	< 0.5 µM	< 0.5 µM
CN(Cc1cccnc1)c1cccc(-c2ccnc3[nH]ccc23)n1 [compound 56, N-Methyl-N-((pyridin-3-yl)methyl)-6-(1H-pyrrolo[2,3-b]pyridin-4-yl)pyridin-2-amine]				0.5 to 5 µM	< 0.5 µM	0.5 to 5 µM
CC(=O)N1CCCN(c2cccc(-c3ccnc4[nH]ccc34)n2)CC1 [compound 18]				0.5 to 5 µM	< 0.5 µM	0.5 to 5 µM
CCNC(=O)c1cc(-c2ccnc3[nH]ccc23)c[nH]1 [compound 282]	< 0.5 µM	< 0.5 µM	< 0.5 µM			
